Results published in PMC4476799, “Englerin A Agonizes the TRPC4/C5 Cation Channels to Inhibit Tumor Cell Line Proliferation” (PLoS ONE, 2015).
Read-outs that look alike come from different tables or passages of the source.

Tested on: cancer cell lines from the cancer cell line encyclopedia (CCLE)
Assay: Cell line profiling (CLiP) proliferation experiment
Format: cell-based
Set-up: key to Compound Activity (1-inactive;2-active): 1-inactive; 2-active; ACTIVITY_AREA: scale not given here; AMAX: unit not given here
Settings: for IC50: read-out: Crossing Point; for EC50: read-out: Inflection Point
Experimental: Compound profiling experiment and data analysis was performed as previously described. Data was imported and plotted using the Tibco Spotfire DXP application. Lines were categorized as sensitive, intermediate and refractory as follows: Amax<-40 & Inflection Point <2 ~ Sensitive, Amax>-20 & Inflection Point >10 ~ Refractory, all else were called Intermediate. Cancer Cell line HG-U133 Plus 2 data was processed and normalized as described. […] Five sets of refractory cell lines were generated from the pool of refractory cell lines trying to match the lineage composition of the set of sensitive cell lines. The limma package was used as previously described to perform the statistical comparison.

[1] = cell line GA-10, haematopoietic_and_lymphoid_tissue
[2] = cell line GAMG, central_nervous_system
[3] = cell line GI-1 (central_nervous_system, gliosarcoma)
[4] = cell line GI-1, central_nervous_system
[5] = cell line GMS-10, central_nervous_system
[6] = cell line GOS-3 (central_nervous_system, astrocytoma)
[7] = cell line GOS-3, central_nervous_system
[8] = cell line GP2d, large_intestine
[9] = cell line GRANTA-519, haematopoietic_and_lymphoid_tissue
[10] = cell line H4, central_nervous_system
[11] = cell line HARA (lung, squamous_cell_carcinoma)
[12] = cell line HH, haematopoietic_and_lymphoid_tissue
[13] = cell line Hs 611.T, haematopoietic_and_lymphoid_tissue
[14] = cell line MCAS (ovary, mucinous_carcinoma)
[15] = cell line MOG-G-UVW (central_nervous_system)
[16] = cell line NB-1 (autonomic_ganglia)
[17] = cell line NB-4 (haematopoietic_and_lymphoid_tissue)
[18] = cell line SNU-119, ovary, adenocarcinoma
[19] = cell line SNU-626 (central_nervous_system, astrocytoma_Grade_IV)
[20] = cell line SNU-1079, biliary_tract

CC(C)[C@@]12C[C@@H](O)[C@@](C)(O1)[C@@H]1CC[C@@H](C)[C@H]1[C@@H]2OC(=O)/C=C/c1ccccc1 [Englerin B]
ACTIVITY_AREA [1]: 28.18
AMAX [1]: 8.5
RESPONSE [1]: REFRACTORY
ACTIVITY_AREA [2]: 50.48
AMAX [2]: -45.21
RESPONSE [2]: INTERMEDIATE
ACTIVITY_AREA (cell line GCIY, stomach): 49.94
AMAX (cell line GCIY, stomach): -70.92
RESPONSE (cell line GCIY, stomach): INTERMEDIATE
Compound Activity (1-inactive;2-active) (cell line GCT (soft_tissue, NS)): 1
ACTIVITY_AREA (cell line GCT, soft_tissue): 17.95
AMAX (cell line GCT, soft_tissue): -52.9
RESPONSE (cell line GCT, soft_tissue): INTERMEDIATE
IC50 (cell line GCT, soft_tissue): 27.1 µM
EC50 (cell line GCT, soft_tissue): 16.4 µM
Compound Activity (1-inactive;2-active) [3]: 1
IC50 [3]: > 30 µM
ACTIVITY_AREA [4]: 112.12
AMAX [4]: -25.87
RESPONSE [4]: INTERMEDIATE
IC50 [4]: > 30 µM
ACTIVITY_AREA [5]: 21.47
AMAX [5]: -32.03
RESPONSE [5]: INTERMEDIATE
Compound Activity (1-inactive;2-active) [6]: 1
IC50 [6]: > 30 µM
ACTIVITY_AREA [7]: 26.28
AMAX [7]: -31.04
RESPONSE [7]: INTERMEDIATE
IC50 [7]: > 30 µM
ACTIVITY_AREA [8]: 32.63
AMAX [8]: -48.04
RESPONSE [8]: INTERMEDIATE
ACTIVITY_AREA (cell line GR-M, skin): 48.68
AMAX (cell line GR-M, skin): -36.64
RESPONSE (cell line GR-M, skin): INTERMEDIATE
IC50 (cell line GR-M, skin): > 30 µM
IC50 (cell line GR-M): > 30 µM
ACTIVITY_AREA [9]: 14.82
AMAX [9]: 16.83
RESPONSE [9]: REFRACTORY
ACTIVITY_AREA [10]: 16.33
AMAX [10]: -3.42
RESPONSE [10]: REFRACTORY
IC50 [10]: > 30 µM
IC50 (cell line H4): > 30 µM
Compound Activity (1-inactive;2-active) [11]: 1
IC50 [11]: 15.9 µM
ACTIVITY_AREA (cell line HARA, lung): 73.57
AMAX (cell line HARA, lung): -72.32
RESPONSE (cell line HARA, lung): INTERMEDIATE
IC50 (cell line HARA, lung): 15.9 µM
Compound Activity (1-inactive;2-active) (cell line HCC-15 (lung, squamous_cell_carcinoma)): 1
ACTIVITY_AREA (cell line HCC-15, lung): 57.49
AMAX (cell line HCC-15, lung): -70.57
RESPONSE (cell line HCC-15, lung): INTERMEDIATE
Compound Activity (1-inactive;2-active) (cell line HCC-44 (lung, adenocarcinoma)): 1
RESPONSE (cell line HCC-44, lung): INTERMEDIATE
RESPONSE (cell line HCC-366, lung): REFRACTORY
Compound Activity (1-inactive;2-active) (cell line HCC-1171 (lung, non_small_cell_carcinoma)): 1
ACTIVITY_AREA (cell line HCC-1171, lung): 53.16
AMAX (cell line HCC-1171, lung): -52.03
RESPONSE (cell line HCC-1171, lung): INTERMEDIATE
IC50 (cell line HEC-59, endometrium): 19.1 µM
IC50 (cell line HEC-151, endometrium): 16.5 µM
IC50 (cell line HEC-265, endometrium): 27.1 µM
EC50 (cell line HEC-265, endometrium): 27.1 µM
Compound Activity (1-inactive;2-active) (cell line HEL 92.1.7 (haematopoietic_and_lymphoid_tissue, acute_myeloid_leukaemia)): 1
IC50 [12]: 10.1 µM
EC50 [12]: 9.47 µM
IC50 (cell line HLC-1, lung): > 30 µM
IC50 (cell line HLC-1): > 30 µM
IC50 (cell line HLF, liver): > 30 µM
EC50 (cell line HLF, liver): 16.8 µM
IC50 (cell line HLF): > 30 µM
IC50 (cell line HMC-1-8, breast): 29.7 µM
Compound Activity (1-inactive;2-active) (cell line HPB-ALL (haematopoietic_and_lymphoid_tissue, acute_lymphoblastic_T_cell_leukaemia)): 1
IC50 (cell line HT, haematopoietic_and_lymphoid_tissue): > 30 µM
IC50 (cell line HT): > 30 µM
IC50 (cell line HTK-, haematopoietic_and_lymphoid_tissue): 28.6 µM
IC50 (cell line Hs 571.T, ovary): 19.6 µM
EC50 (cell line Hs 571.T, ovary): 19.6 µM
IC50 [13]: 20.9 µM
EC50 [13]: 20.9 µM
IC50 (cell line Hs 729, soft_tissue): > 30 µM
IC50 (cell line Hs 729): > 30 µM
IC50 (cell line Hs 936.T, skin): > 30 µM
EC50 (cell line Hs 936.T, skin): 7.96 µM
IC50 (cell line Hs 936.T): > 30 µM
IC50 (cell line Hs 939.T, skin): > 30 µM
IC50 (cell line Hs 939.T): > 30 µM
IC50 (cell line Hs 940.T, skin): > 30 µM
IC50 (cell line Hs 944.T, skin): 20.6 µM
EC50 (cell line Hs 944.T, skin): 17.1 µM
IC50 (cell line HuG1-N, stomach): 10.9 µM
IC50 (cell line J82): > 30 µM
IC50 (cell line KLE): > 30 µM
Compound Activity (1-inactive;2-active) (cell line Loucy (haematopoietic_and_lymphoid_tissue, acute_lymphoblastic_T_cell_leukaemia)): 1
Compound Activity (1-inactive;2-active) (cell line MC116 (haematopoietic_and_lymphoid_tissue, B_cell_lymphoma_unspecified)): 1
Compound Activity (1-inactive;2-active) [14]: 1
IC50 [14]: > 30 µM
Compound Activity (1-inactive;2-active) (cell line MDA-MB-231 (breast, NS)): 1
Compound Activity (1-inactive;2-active) (cell line MDA-MB-453 (breast, NS)): 1
Compound Activity (1-inactive;2-active) (cell line MEC-1 (haematopoietic_and_lymphoid_tissue, chronic_lymphocytic_leukaemia-small_lymphocytic_lymphoma)): 1
IC50 (cell line MEL-HO (skin)): > 30 µM
IC50 (cell line MEL-HO): > 30 µM
IC50 (cell line MHH-NB-11 (autonomic_ganglia)): 26.9 µM
IC50 (cell line MJ (haematopoietic_and_lymphoid_tissue)): 9.13 µM
IC50 [15]: > 30 µM
EC50 [15]: 10.2 µM
IC50 (cell line MOG-G-UVW): > 30 µM
Compound Activity (1-inactive;2-active) (cell line MOLT-16 (haematopoietic_and_lymphoid_tissue, acute_lymphoblastic_T_cell_leukaemia)): 1
Compound Activity (1-inactive;2-active) (cell line MONO-MAC-6 (haematopoietic_and_lymphoid_tissue, acute_myeloid_leukaemia)): 1
IC50 (cell line MOR/CPR (lung)): 28.3 µM
EC50 (cell line MOR/CPR (lung)): 12.9 µM
EC50 (cell line MOR/CPR): 12.9 µM
Compound Activity (1-inactive;2-active) (cell line MeWo (skin, NS)): 1
IC50 (cell line Mel285 (eye)): > 30 µM
EC50 (cell line Mel285 (eye)): 13.8 µM
IC50 (cell line Mel285): > 30 µM
IC50 [16]: 22.3 µM
EC50 [16]: 22.3 µM
IC50 [17]: 18.5 µM
EC50 [17]: 11.5 µM
Compound Activity (1-inactive;2-active) (cell line NCI-H1048 (lung, small_cell_carcinoma)): 1
Compound Activity (1-inactive;2-active) (cell line NCI-H1299 (lung, non_small_cell_carcinoma)): 1
IC50 (cell line NCI-H1341 (lung)): 15 µM
EC50 (cell line NCI-H1341 (lung)): 15 µM
Compound Activity (1-inactive;2-active) (cell line NCI-H1355 (lung, adenocarcinoma)): 1
Compound Activity (1-inactive;2-active) (cell line NCI-H1792 (lung, adenocarcinoma)): 1
Compound Activity (1-inactive;2-active) (cell line NCI-H2073 (lung, adenocarcinoma)): 1
IC50 (cell line NCI-H2106): > 30 µM
IC50 (cell line NCI-H2330): > 30 µM
IC50 (cell line OC 316): > 30 µM
IC50 (cell line OMM2.3): > 30 µM
EC50 (cell line OMM2.3): 13.6 µM
IC50 (cell line OMM2.5): > 30 µM
IC50 (cell line OV7): > 30 µM
IC50 (cell line OVISE): 17.9 µM
IC50 (cell line PC-3): 25.9 µM
IC50 (cell line PE/CA-PJ41 (clone D2)): 25.8 µM
IC50 (cell line PEER): 13.5 µM
IC50 (cell line RCC10RGB): > 30 µM
IC50 (cell line RCH-ACV): 15.6 µM
EC50 (cell line RCH-ACV): 12.1 µM
IC50 (cell line RD): > 30 µM
IC50 (cell line RERF-LC-AI): > 30 µM
EC50 (cell line RERF-LC-AI): 17.9 µM
IC50 (cell line RI-1): 9.99 µM
EC50 (cell line RI-1): 9.99 µM
IC50 (cell line RKN): > 30 µM
IC50 (cell line RKO): 14.7 µM
EC50 (cell line RKO): 13.1 µM
IC50 (cell line RL): 12.5 µM
EC50 (cell line RL): 11.8 µM
IC50 (cell line RMUG-S): > 30 µM
IC50 (cell line Reh): 21.5 µM
EC50 (cell line Reh): 21.5 µM
IC50 (cell line SEM, haematopoietic_and_lymphoid_tissue, acute_lymphoblastic_B_cell_leukaemia): 14.2 µM
Compound Activity (1-inactive;2-active) (cell line SF-295 (central_nervous_system, astrocytoma_Grade_IV)): 1
IC50 (cell line SH-4, skin): > 30 µM
Compound Activity (1-inactive;2-active) (cell line SK-N-SH (autonomic_ganglia, NS)): 1
IC50 (cell line SNG-M, endometrium, adenocarcinoma): > 30 µM
IC50 [18]: > 30 µM
EC50 [18]: 27.2 µM
Compound Activity (1-inactive;2-active) (cell line SNU-475 (liver, hepatocellular_carcinoma)): 1
Compound Activity (1-inactive;2-active) [19]: 1
IC50 [19]: > 30 µM
IC50 (cell line SNU-626, central_nervous_system, astrocytoma_Grade_IV): > 30 µM
IC50 (cell line SNU-738, central_nervous_system, oligodendroglioma): > 30 µM
IC50 [20]: 25.7 µM
EC50 [20]: 25.7 µM
Compound Activity (1-inactive;2-active) (cell line SW48 (large_intestine, adenocarcinoma)): 1
Compound Activity (1-inactive;2-active) (cell line SW 1783 (central_nervous_system, astrocytoma_Grade_III)): 1
Compound Activity (1-inactive;2-active) (cell line THP-1 (haematopoietic_and_lymphoid_tissue, acute_myeloid_leukaemia)): 1
Compound Activity (1-inactive;2-active) (compound-level call): 1
Compound Activity (1-inactive;2-active) (compound-level call printed on every cell line row): 1
Compound Activity (1-inactive;2-active) (compound-level call, the same on every cell line's row): 1
Compound Activity (1-inactive;2-active) (compound-level flag): 1
Compound Activity (1-inactive;2-active) (compound-level flag repeated on every cell line row): 1
Compound Activity (1-inactive;2-active) (compound-level flag, printed on every cell line row): 1
Compound Activity (1-inactive;2-active) (flag of the compound): 1
Compound Activity (1-inactive;2-active) (overall call per compound): 1
Compound Activity (1-inactive;2-active) (overall class of the compound): 1
Compound Activity (1-inactive;2-active) (printed on every cell line row, same value for the compound throughout): 1
